Measurements: PubChem BioAssay AID179 (DTP/NCI, 2004)
The source made the active and inactive calls.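 How the source made its calls: active means compounds giving half or more protection of infected cells from virus-caused growth loss, again on retest; inactive means the rest.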 Where a SMILES comes first, the peptide text is derived from it.

Tested on: CEM cells HIV-1 protection, formazan growth assay
Test: NCI AIDS Antiviral Assay
Conditions: for IC50: measured here: growth of uninfected CEM cells
Summary of the method: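 Human CEM cells, uninfected and HIV-1-infected, received five drug concentrations, and growth was read by soluble formazan assay. Compounds giving at least 50% protection were retested; reproducible 100% protection defined confirmed active.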

COc1cc2c(cc1OCCCCN1C(=O)c3cccc4cccc(c34)C1=O)N=C[C@@H]1CCCN1C2=O
EC50: > 200 µM | IC50: 3.47 µM

CO/N=C1\CC(n2cc(C)c(=O)[nH]c2=O)OC1CO (centres undefined)
EC50: > 200 µM | IC50: > 200 µM

Cc1ccc2c(c1)P1c3cc(C)ccc3SP1S2 (centres undefined)
EC50: > 12.3 µM | IC50: > 12.3 µM

CC(=O)N(O)c1ccc(Cl)cc1
EC50: > 200 µM | IC50: > 200 µM

CN(C)C=Nc1ccc2nonc2c1
EC50: > 200 µM | IC50: 151 µM

CCOC(=O)CNC(SC)=C(C#N)C#N
outcome: inactive

COCn1cc(C2=C(C)C(=O)C(C)=C(C)C2=O)cn1
EC50: > 200 µM | IC50: 6.03 µM

CCOC(=O)c1ccc(CSc2ccc(N)cc2)c([N+](=O)[O-])c1
EC50: > 40.7 µM | IC50: > 40.7 µM

COC(=O)C(=O)C(CC(=O)Nc1ccc(C)cc1)C(=O)OC (centres undefined)
EC50: > 309 µM | IC50: > 309 µM

O=C(CCc1n[nH]c(=S)o1)Nc1cc(Cl)ccc1Cl
EC50: > 112 µM | IC50: > 112 µM

O=C(/C=C/c1ccccc1)CCC1C(=O)NC(=O)NC1=O
EC50: > 66.1 µM | IC50: > 66.1 µM

Cc1nc2cc(Nc3ccccc3C(=O)O)ccc2s1
EC50: > 631 µM | IC50: 158 µM

CC1(C)CCCC2CC2CCC(C)(C)C1=O (centres undefined)
EC50: > 200 µM | IC50: 105 µM

Nc1ccn(C2OC(CO)C(O)C2O)c(=O)n1 (centres undefined)
EC50: > 2 µM | IC50: 0.00275 µM

CC1(C)CCCC2C1=NOC2O (centres undefined)
EC50: > 1480 µM | IC50: > 1480 µM

COc1ccc(NC(=S)Nc2cc(C)cc(C)n2)cc1
EC50: > 200 µM | IC50: > 200 µM

O=C(N1CCCCC(Cl)(Cl)C1=O)C(Cl)(Cl)Cl
EC50: > 759 µM | IC50: > 759 µM

CCN(CC)CCCN1CC(=O)N2CCCCN2C(=O)C1
EC50: > 200 µM | IC50: > 200 µM

CC1(C)C(=O)N(O)C(C)(C)N1N=O
EC50: > 200 µM | IC50: > 200 µM

Cc1ccccc1C(=O)NC(O)(C(F)(F)F)C(F)(F)F
outcome: inactive

CC1=NNC(=O)C1C1CC(c2c[nH]c3ccccc23)=NN(c2ccccc2)C1=O (centres undefined)
EC50: > 200 µM | IC50: 33.9 µM

Cn1c2ccccc2c2c3c(ccc21)C(=O)c1ccccc1C3=O
EC50: > 17 µM | IC50: > 17 µM

O=C1NC(N2CCCCC2)=N/C1=C\c1ccccc1
EC50: > 200 µM | IC50: > 200 µM

Brc1cn2[n+](c1)[B-]n1cc(Br)c[n+]1[B-]2
EC50: > 200 µM | IC50: 138 µM

c1ccc(CCCC2Sc3cccc4cccc(c34)S2)cc1
EC50: > 11.7 µM | IC50: > 11.7 µM

O=C(C[n+]1ccccc1)c1ccc(O)c(O)c1
EC50: 0.0631 µM | IC50: > 200 µM

Nc1nc2c(ncn2C2CCC(CO)O2)c(=O)n1C(=O)c1ccccc1 (centres undefined)
EC50: 37.2 µM | IC50: > 100 µM

CCCCCCNC(=O)/C(=C/c1ccc(OC)cc1)NC(=O)c1ccccc1
EC50: > 200 µM | IC50: 102 µM

CCCCN(C)C(=O)COc1cc2c(O)c3c(O)c(C)c4c(c13)C(=O)C(C)(O/C=C/C(OC)C(C)C(OC(C)=O)C(C)C(O)C(C)C(O)C(C)/C=C/C=C(\C)C(=O)N2)O4 (centres undefined)
EC50: 28.2 µM | IC50: 28.8 µM

COC(=O)CC1COC(C)(C)O1 (centres undefined)
outcome: inactive

O=C1C=C(CCC2=CC(=O)c3ccccc3C2=O)C(=O)c2ccccc21
EC50: > 200 µM | IC50: 91.2 µM

OCC(O)CC[CH2][Sn]([Br])([c]1ccccc1)[c]1ccccc1 (centres undefined)
outcome: inactive

Cc1cccc(C)c1NC(=O)CCCC(=O)C1CCC/C1=N\NC(=O)C(=O)NN (centres undefined)
EC50: > 64.6 µM | IC50: > 64.6 µM

C/C(=N\N=C(\N)OB(F)F)c1ccccn1
EC50: > 200 µM | IC50: 141 µM

COC(=O)c1c2c(cc3c1CC1(Cc4cc5c(cc4C1)CCCC5)C3)CCCC2
EC50: > 200 µM | IC50: > 200 µM

CC1CN(Cc2ccccc2)C(=N)S1 (centres undefined)
EC50: > 363 µM | IC50: 288 µM

CN(C)N1C(=O)CC2(CCN(CCCC(=O)c3ccc(F)cc3)CC2)C1=O
EC50: > 200 µM | IC50: > 200 µM

CC(C)CC(NC(=O)C(Cc1ccc(O)cc1)NC(=O)C(CO)NC(=O)C(C)NC(=O)C(CO)NC(=O)C(CCC(=O)O)NC(=O)C(NC(=O)C(N)CCC(=O)O)C(C)C)C(=O)NC(CCCN=C(N)N)C(=O)NC(CCCCN)C(=O)O (centres undefined) (H-EVESASYLRK-OH; configuration not given here)
outcome: inactive

COc1ccc(NC(=O)/C(=C/c2ccc(N(CCC#N)CCC#N)cc2)NC(=O)c2cc([N+](=O)[O-])ccc2Cl)cc1
EC50: > 23.4 µM | IC50: > 23.4 µM

O=C(O)c1ccccc1C1c2ccc(Cl)cc2Oc2cc(Cl)ccc21
EC50: > 10 µM | IC50: > 10 µM

O=C(c1ccco1)N(C(=S)N1CCN(c2ccccc2)CC1)c1ccccc1
EC50: > 18.2 µM | IC50: > 18.2 µM

Cc1cnc2c(ccc3c(C)c(C)c(C)nc32)c1C.Cc1cnc2c(ccc3c(C)c(C)c(C)nc32)c1C.O=C1OC(C(O)C[O-])C(O)=C1O.[Cu+]
EC50: > 25.1 µM | IC50: 1.29 µM

CCC(C)C(CC)C(=O)NC(N)=O (centres undefined)
EC50: > 200 µM | IC50: > 200 µM

C#CCCCCC#Cc1ccccc1C(=O)C=[N+]=[N-]
EC50: > 110 µM | IC50: 91.2 µM

CN1C(=O)C2CCC(=O)N2c2cccnc21 (centres undefined)
EC50: > 200 µM | IC50: > 200 µM

COc1ccccc1C1(c2c(OC)c(=O)c2=O)SCCCS1
EC50: > 200 µM | IC50: > 200 µM

CNc1ccc(/C=C2\C=Cc3ccccc32)cc1
EC50: > 200 µM | IC50: > 200 µM

CCOC(=O)CC(C)CCO (centres undefined)
EC50: > 1550 µM | IC50: > 1550 µM

COc1ccc(-c2cc(Cc3cccs3)c(=O)[nH]n2)cc1
outcome: inactive

COc1ccc(C2C(Cl)C(=O)N2NC(=O)c2ccc(NC(C)=O)cc2)cc1OC (centres undefined)
EC50: > 200 µM | IC50: > 200 µM

CC[C@]1(Cc2ccc(OC)c(OC)c2)C=[N+]([O-])O[C@H](OC2CCCC2(c2ccccc2)c2ccccc2)[C@@H]1OC(=O)C(C)(C)C (some centres undefined)
EC50: > 200 µM | IC50: 1.17 µM

COc1ccc(N=C2SC(=N/N=c3\sc4ccccc4n3C)SC2=Nc2ccc(OC)cc2)cc1
EC50: > 200 µM | IC50: 63.1 µM

COc1cccc(/C=N/[N+](C)(C)C)c1O
EC50: > 200 µM | IC50: > 200 µM

CC(=O)NC(CC(C)C)C(=O)NC(Cc1ccccc1)C(=S)N1CCCC1 (centres undefined)
EC50: > 174 µM | IC50: > 174 µM

COc1ccc(Nc2ccc([N+](=O)[O-])c3nonc23)cc1
EC50: > 77.6 µM | IC50: > 77.6 µM

C/C(=N\NC(N)=O)c1cc2cc([N+](=O)[O-])ccc2oc1=O
EC50: > 70.8 µM | IC50: > 70.8 µM

O=C1CCC2(CC1)SCCCS2
EC50: > 339 µM | IC50: > 339 µM

COc1ccc2c(c1)C1c3ccccc3CCN1CCC2 (centres undefined)
EC50: > 200 µM | IC50: 79.4 µM

CCOc1ccc(-n2nc(C(=O)O)cc(Cl)c2=O)cc1
EC50: > 427 µM | IC50: 18.2 µM

CC(=O)Nc1ccc(C(=O)N2N=C(C)/C(=C/c3ccc(O)cc3)C2=O)cc1
EC50: > 37.2 µM | IC50: > 37.2 µM

Cc1cc(C)n(-c2nc3ccccc3c(=O)[nH]2)n1
EC50: > 5.13 µM | IC50: 1.07 µM

COc1ccc2c(ccc3c(COC(=O)NC(C)C)c(COC(=O)NC(C)C)n(C)c32)c1
EC50: > 200 µM | IC50: 0.112 µM

O=C(O)c1ccc([C@@H]2C(=O)N(O)[C@@H]3C=CC[C@@H]32)cc1
EC50: > 347 µM | IC50: > 347 µM

COc1cc(C2C(O)N(C)C(=O)C23CCCN3C)c(Br)cc1Br (centres undefined)
outcome: inactive

Nc1ccc2c(c1)C1=NNC(=O)CC1C2 (centres undefined)
outcome: inactive

COc1cc(O)c2c(c1)O[C@H](C)C(C)C2=O (some centres undefined)
EC50: > 200 µM | IC50: > 200 µM
